Reference: patent US9072698B2, “Method for screening anti-cancer compounds inhibiting function of TM4SF5 and anti-cancer composition containing chalcone compounds” (Seoul National University Industry Foundation, priority 2006, dated 2015)

Test system: SNU449Tp cells
Assay: Invasion into collagen gel, microcarrier beads (FIG. 66)
Assay type: cell-based, human
Conditions: 20 μM, 18 hrs
Procedure: Cell invasiveness was analyzed using Cytodex-3 microcarriers. SNU449 Cp and SNU449Tp cells were grown on microcarrier beads in an attached state, and cultured in a collagen gel matrix, including a serum-containing medium at 37° C.
SNU449 Cp cells and SNU449Tp cells were allowed to attach to microcarrier beads, and cultured in the presence of 20 μM of TSAHC for 18 hrs. Bead-cells were cultured in a collagen gel matrix, including a serum-containing medium, and observed for invasion into the collagen gel at given time points.

Cc1ccc(S(=O)(=O)Nc2ccc(C(=O)/C=C/c3ccc(O)cc3)cc2)cc1 [Compound 1, 4′-(p-toluenesulfonylamino)-4-hydroxychalcone]
TM4SF5-mediated cell invasion into collagen gel: inhibit TM4SF5-mediated cell invasion into collagen gel
